Laboratory results from the NIST ThermoML archive (doi:10.1021/acs.jced.5b00820).
Several values for one entry are separate records, joined by “and”; a condition that tells them apart may be missing. Equal entries are not always repeated. ± gives the expanded uncertainty stated by the source.

What was measured:
[1] = 102.2 kPa, Liquid, Vibrating tube method
[2] = refractive index (Na D-line) (dimensionless); details: 102.2 kPa, Liquid, Standard Abbe refractometry
[3] = xn = mol fraction of the nth substance listed; details: 102.2 kPa, Liquid, Vibrating tube method, x2 = 0
[4] = refractive index (Na D-line) (dimensionless); xn = mol fraction of the nth substance listed; details: 102.2 kPa, Liquid, Standard Abbe refractometry, x2 = 0

| Compound | mass density ([1]; 308.15 K) | mass density ([1]; 313.15 K) | mass density ([1]; 318.15 K) | mass density ([1]; 323.15 K) | mass density ([1]; 328.15 K) | refractive index ([2]; 308.15 K) | refractive index ([2]; 313.15 K) | refractive index ([2]; 318.15 K) | refractive index ([2]; 323.15 K) | refractive index ([2]; 328.15 K) | mass density ([3]; 308.15 K) [kg/m3] | mass density ([3]; 313.15 K) [kg/m3] | mass density ([3]; 318.15 K) [kg/m3] | mass density ([3]; 323.15 K) [kg/m3] | mass density ([3]; 328.15 K) [kg/m3] | refractive index ([4]; 308.15 K) | refractive index ([4]; 313.15 K) | refractive index ([4]; 318.15 K) | refractive index ([4]; 323.15 K) | refractive index ([4]; 328.15 K) |
| --- | --- | --- | --- | --- | --- | --- | --- | --- | --- | --- | --- | --- | --- | --- | --- | --- | --- | --- | --- | --- |
| C[Si]1(CCC(F)(F)F)O[Si](C)(CCC(F)(F)F)O[Si](C)(CCC(F)(F)F)O1 (stereo not given) | 1236.82 ± 0.23 kg/m3 | 1230.2 ± 0.23 kg/m3 | 1223.61 ± 0.23 kg/m3 | 1217.06 ± 0.23 kg/m3 | 1210.43 ± 0.23 kg/m3 | 1.36015 ± 0.00035 | 1.35814 ± 0.00035 | 1.35614 ± 0.00035 | 1.35413 ± 0.00035 | 1.35215 ± 0.00035 | – | – | – | – | – | – | – | – | – | – |
| C=C[Si](C)(C)O[Si](C)(C)C=C [1,3-diethenyl-1,1,3,3-tetramethyldisiloxane] | 797.99 ± 0.23 kg/m3 | 793.04 ± 0.23 kg/m3 | 788.05 ± 0.24 kg/m3 | 783.06 ± 0.24 kg/m3 | 778.04 ± 0.24 kg/m3 | 1.40445 ± 0.00036 | 1.40178 ± 0.00036 | 1.39912 ± 0.00036 | 1.39644 ± 0.00036 | 1.39378 ± 0.00036 | – | – | – | – | – | – | – | – | – | – |
| C=C[Si](C)(C)O[Si](C)(C)C=C [1,3-diethenyl-1,1,3,3-tetramethyldisiloxane] + C[Si](C)(O[Si](C)(C)c1ccccc1)c1ccccc1 | – | – | – | – | – | – | – | – | – | – | 797.99 ± 0.23 | 793.04 ± 0.23 | 788.05 ± 0.24 | 783.06 ± 0.24 | 778.04 ± 0.24 | 1.40445 ± 0.00036 | 1.40178 ± 0.00036 | 1.39912 ± 0.00036 | 1.39644 ± 0.00036 | 1.39378 ± 0.00036 |
| C[Si](C)(O[Si](C)(C)c1ccccc1)c1ccccc1 [1,3-diphenyltetramethyldisiloxane] | 968.05 ± 0.21 kg/m3 and 967.99 ± 0.21 kg/m3 and 967.9 ± 0.21 kg/m3 | 963.92 ± 0.21 kg/m3 [middle of 4 runs] | 959.8 ± 0.21 kg/m3 [middle of 4 runs] | 955.69 ± 0.21 kg/m3 [middle of 4 runs] | 951.57 ± 0.21 kg/m3 and 951.58 ± 0.21 kg/m3 and 951.65 ± 0.21 kg/m3 | 1.51064 ± 0.00035 [middle of 4 runs] | 1.50832 ± 0.00035 [middle of 4 runs] | 1.50605 ± 0.00035 [middle of 4 runs] | 1.50377 ± 0.00035 [middle of 4 runs] | 1.50144 ± 0.00035 [middle of 4 runs] | – | – | – | – | – | – | – | – | – | – |

More lines, now with the values ahead:

| mass density ([1]; 308.15 K) | mass density ([1]; 313.15 K) | mass density ([1]; 318.15 K) | mass density ([1]; 323.15 K) | mass density ([1]; 328.15 K) | refractive index ([2]; 308.15 K) | refractive index ([2]; 313.15 K) | refractive index ([2]; 318.15 K) | refractive index ([2]; 323.15 K) | refractive index ([2]; 328.15 K) | mass density ([3]; 308.15 K) [kg/m3] | mass density ([3]; 313.15 K) [kg/m3] | mass density ([3]; 318.15 K) [kg/m3] | mass density ([3]; 323.15 K) [kg/m3] | mass density ([3]; 328.15 K) [kg/m3] | refractive index ([4]; 308.15 K) | refractive index ([4]; 313.15 K) | refractive index ([4]; 318.15 K) | refractive index ([4]; 323.15 K) | refractive index ([4]; 328.15 K) | Compound |
| --- | --- | --- | --- | --- | --- | --- | --- | --- | --- | --- | --- | --- | --- | --- | --- | --- | --- | --- | --- | --- |
| – | – | – | – | – | – | – | – | – | – | 1236.82 ± 0.23 | 1230.2 ± 0.23 | 1223.61 ± 0.23 | 1217.06 ± 0.23 | 1210.43 ± 0.23 | 1.36015 ± 0.00035 | 1.35814 ± 0.00035 | 1.35614 ± 0.00035 | 1.35413 ± 0.00035 | 1.35215 ± 0.00035 | C[Si]1(CCC(F)(F)F)O[Si](C)(CCC(F)(F)F)O[Si](C)(CCC(F)(F)F)O1 (stereo not given) + C[Si](C)(O[Si](C)(C)c1ccccc1)c1ccccc1 |
| 972.64 ± 0.21 kg/m3 | 967.49 ± 0.21 kg/m3 | 962.36 ± 0.21 kg/m3 | 957.2 ± 0.21 kg/m3 | 952.03 ± 0.21 kg/m3 | 1.42751 ± 0.00035 | 1.42514 ± 0.00035 | 1.42275 ± 0.00035 | 1.4204 ± 0.0004 | 1.41802 ± 0.00035 | – | – | – | – | – | – | – | – | – | – | C=C[Si]1(C)O[Si](C)(C=C)O[Si](C)(C=C)O[Si](C)(C=C)O1 (stereo not given) [2,4,6,8-tetramethyl-2,4,6,8-tetravinylcycloterasiloxane] |
| – | – | – | – | – | – | – | – | – | – | 972.64 ± 0.21 | 967.49 ± 0.21 | 962.36 ± 0.21 | 957.2 ± 0.21 | 952.03 ± 0.21 | 1.42751 ± 0.00035 | 1.42514 ± 0.00035 | 1.42275 ± 0.00035 | 1.4204 ± 0.0004 | 1.41802 ± 0.00035 | C=C[Si]1(C)O[Si](C)(C=C)O[Si](C)(C=C)O[Si](C)(C=C)O1 (stereo not given) [2,4,6,8-tetramethyl-2,4,6,8-tetravinylcycloterasiloxane] + C[Si](C)(O[Si](C)(C)c1ccccc1)c1ccccc1 |
| 938.88 ± 0.22 kg/m3 | 933.06 ± 0.22 kg/m3 | 927.34 ± 0.22 kg/m3 | 921.59 ± 0.22 kg/m3 | 915.8 ± 0.22 kg/m3 | 1.38924 ± 0.00036 | 1.38671 ± 0.00036 | 1.38419 ± 0.00036 | 1.38168 ± 0.00036 | 1.37916 ± 0.00036 | – | – | – | – | – | – | – | – | – | – | C[Si]1(C)O[Si](C)(C)O[Si](C)(C)O[Si](C)(C)O1 [octamethylcyclotetrasiloxane] |
| – | – | – | – | – | – | – | – | – | – | 938.88 ± 0.22 | 933.06 ± 0.22 | 927.34 ± 0.22 | 921.59 ± 0.22 | 915.8 ± 0.22 | 1.38924 ± 0.00036 | 1.38671 ± 0.00036 | 1.38419 ± 0.00036 | 1.38168 ± 0.00036 | 1.37916 ± 0.00036 | C[Si]1(C)O[Si](C)(C)O[Si](C)(C)O[Si](C)(C)O1 [octamethylcyclotetrasiloxane] + C[Si](C)(O[Si](C)(C)c1ccccc1)c1ccccc1 |
